# Patent publication US12304813B2, “Sodium thiosulfate-containing pharmaceutical compositions” (Hope Medical Enterprises, Inc., priority 2009, dated 2025)
# What was measured:
# [1] = system: platinum-induced nephrotoxicity; settings: associated with platinum-containing chemotherapeutic agents; Current Opinions in Oncology 1995; cited from earlier work
# [2] = system: platinum-induced ototoxicity; settings: associated with platinum-containing chemotherapeutic agents; Current Opinions in Oncology 1995; cited from earlier work
# [3] = Example 1 batch
# Procedure: In another embodiment, the sodium thiosulfate provided herein has a pH between about 6 to about 8 when measured in a 10% solution at 25° C. In certain embodiments, the pH of the sodium provided herein is measured using a pH meter. In certain embodiments, the pH of the sodium thiosulfate provided herein is determined according to Method 791 in USP XXXII (2009).
# calciphylaxis = settings: literature report, Archives of Dermatology 2007; cited from earlier work
# vascular calcification = settings: literature report, Kidney International 2008; cited from earlier work
smiles,measurement,setting,value
O.O.O.O.O.O=S([O-])([O-])=S.[Na+].[Na+] [sodium thiosulfate pentahydrate],treatment to prevent platinum-induced nephrotoxicity,[1],effective treatment
same,treatment to prevent platinum-induced ototoxicity,[2],effective treatment
same,pH of 10% solution at 25° C.,[3],6.6
same,treatment for calciphylaxis,calciphylaxis,effective treatment
same,treatment for vascular calcification,vascular calcification,effective treatment
